Measurements taken from article PMC8280143, “A novel dephosphorylation targeting chimera selectively promoting tau removal in tauopathies” (Signal Transduction and Targeted Therapy, 2021).
No end group written: not given here. *: point of attachment. FITC = O=C1OC2(c3ccc(O)cc3Oc3cc(O)ccc32)c2ccc(NC(=S)*)cc21

Columns and labels:
tau = conditions: cited from earlier work
Description: (§1) By contrast, small-molecular kinase inhibitors or phosphatase enhancers generally lack specificity. […] This might bring unacceptable side-effects in the clinic. Importantly, the principle of DEPTAC can be used in future studies to design alternative chimeras specifically targeting many other types of post-tr ...

inositol monophosphatase = conditions: cited from earlier work
Description: as §1

[1] = tested on: glycogen synthase kinase-3; conditions: cited from earlier work
Description: as §1

human tau = test: Fluorescence polarization binding assay, tau; conditions: 0.1 μM FITC-labeled DEPTAC; serial dilutions of tau; 20 mM Tris-HCl, 150 mM NaCl, 0.5 mM DTT, pH 7.4; 37 °C, 30 min
Description: (§2) Purified human tau and PP2A-Bα (PPP2R1A) were obtained from AtaGenix (Wuhan, China), and concentrated using ultrafiltration tubes (Beyotime). In basic binding assays, tau or PP2A-Bα was aliquoted into serial dilutions with a buffer containing 20 mM Tris-HCl, 150 mM NaCl, and 0.5 mM 1,4-Dithiothreitol (pH 7.4), and incubated with 0.1 μM FITC-labeled DEPTAC, FITC-labeled control peptide and FITC (9:1 vol/vol), respectively, in a black 384-well plates (Corning) under 37 °C for 30 min. In competition binding assays, a mixture of 2.5 μM tau or PP2A-Bα and 0.1 μM FITC-labeled DEPTAC were incubated with increasing amounts of unlabeled-DEPTAC under 37 °C for 30 min. Fluorescence intensity was measured by a Biotek Synergy 2 microplate reader with the wavelengths of 480 nm (60) (Ex)/560 nm (40) (Em). The polarization measurements were corrected for background contributions to the measured intensity by subtracting the parallel and perpendicular intensity readings by the vehicle-only wells from the intensity readings for each data point. Fluorescence polarization (P) was calculated by the formula P = (I║ − I┴) / (I║ + I┴), where I║ was the intensity of emitted light polarized parallel to the excitation light, and I┴ was the intensity of emitted light polarized perpendicular to the excitation light.

PP2A-Bα (PPP2R1A) = test: Fluorescence polarization binding assay, PP2A-Bα; set-up: species or system human; conditions: 0.1 μM FITC-labeled DEPTAC; serial dilutions of PP2A-Bα; 20 mM Tris-HCl, 150 mM NaCl, 0.5 mM DTT, pH 7.4; 37 °C, 30 min
Description: as §2

| FITC-DEPTAC fluorescence polarization with increased amount of tau (human tau) | FITC-DEPTAC fluorescence polarization with increased amount of PP2A-Bα (PP2A-Bα (PPP2R1A)) | Compound | suppression of tau hyperphosphorylation (tau) | action on inositol monophosphatase (inositol monophosphatase) | action on glycogen synthase kinase-3 [1] |
| --- | --- | --- | --- | --- | --- |
|  |  | [Li] [lithium] | suppress tau hyperphosphorylation | acts on other targets | acts on other targets |
| sigmoidal increases | sigmoidal increases | FITC-DEPTAC: For tracing the chimera, a fluorescein FITC was conjugated at the K18 residue (YQQYQDATADEQGGSGSK(FITC)KVAVVRTPPKSPRRRRRRRR) |  |  |  |
